Data published in patent US9073873B2, “2-heterocyclylaminoalkyl-(p-quinone) derivatives for treatment of oxidative stress diseases” (Edison Pharmaceuticals, Inc., priority 2008, dated 2015).
pEC50: −log10 of the molar value.

Assays:
Type in all cases: cell-based
[1] = tested on: Human dermal fibroblasts from Friedreich's Ataxia patients; assay: Rescue of BSO-stressed FRDA fibroblasts (Calcein AM viability); conditions: FRDA fibroblasts GM04078, BSO-stressed, read-out: protection against FRDA, EC50
Description: (§1) An initial screen was performed to identify compounds effective for the amelioration of redox disorders. Test samples, 4 reference compounds (idebenone, decylubiquinone, Trolox and α-tocopherol acetate), and solvent controls were tested for their ability to rescue FRDA fibroblasts stressed by addition of L-buthionine-(S,R)-sulfoximine (BSO), as described in Jauslin et al., Hum. Mol. Genet. 11(24):3055 (2002), Jauslin et al., FASEB J. 17:1972-4 (2003), and International Patent Application WO 2004/003565. […] This specific BSO-mediated cell death can be prevented by administration of antioxidants or molecules involved in the antioxidant pathway, such as α-tocopherol, selenium, or small molecule glutathione peroxidase mimetics. However, antioxidants differ in their potency, i.e. the concentration at which they are able to rescue BSO-stressed FRDA fibroblasts.
MEM (a medium enriched in amino acids and vitamins, catalog no. 1-31F24-I) and Medium 199 (M199, catalog no. 1-21F22-I) with Earle's Balanced Salts, without phenol red, were purchased from Bioconcept. Fetal Calf Serum was obtained from PAA Laboratories. Basic fibroblast growth factor and epidermal growth factor were purchased from PeproTech. Penicillin-streptomycin-glutamine mix, L-buthionine (S,R)-sulfoximine, (+)-α-tocopherol acetate, decylubiquinone, and insulin from bovine pancreas were purchased from Sigma. Trolox (6-Hydroxy-2,5,7,8-tetramethylchromane-2-carboxylic acid) was obtained from Fluka. Idebenone was obtained from Chemo Iberica. Calcein AM was purchased from Molecular Probes. Cell culture medium was made by combining 125 ml M199 EBS, 50 ml Fetal Calf Serum, 100 U/ml penicillin, 100 μg/ml streptomycin, 2 mM glutamine, 10 μg/ml insulin, 10 ng/ml EGF, and 10 ng/ml bFGF; MEM EBS was added to make the volume up to 500 ml. A 10 mM BSO solution was prepared by dissolving 444 mg BSO in 200 ml of medium (Invitrogen, Carlsbad, Ca.) with subsequent filter-sterilization. During the course of the experiments, this solution was stored at +4° C. The cells were obtained from the Coriell Cell Repositories (Camden, N.J.; repository number GM04078) and grown in 10 cm tissue culture plates. Every third day, they were split at a 1:3 ratio.
The test samples were supplied in 1.5 ml glass vials. The compounds were diluted with DMSO, ethanol or PBS to result in a 5 mM stock solution. Once dissolved, they were stored at −20° C. Reference antioxidants (idebenone, decylubiquinone, α-tocopherol acetate and Trolox) were dissolved in DMSO.
(§2) Test samples were screened according to the following protocol: A culture with FRDA fibroblasts was started from a 1 ml vial with approximately 500,000 cells stored in liquid nitrogen. Cells were propagated in 10 cm cell culture dishes by splitting every third day in a ratio of 1:3 until nine plates were available. Once confluent, fibroblasts were harvested. For 54 micro titer plates (96 well-MTP) a total of 14.3 million cells (passage eight) were re-suspended in 480 ml medium, corresponding to 100 μl medium with 3,000 cells/well. The remaining cells were distributed in 10 cm cell culture plates (500,000 cells/plate) for propagation. The plates were incubated overnight at 37° C. in a atmosphere with 95% humidity and 5% CO2 to allow attachment of the cells to the culture plate.
(§3) MTP medium (243 μl) was added to a well of the microtiter plate. The test compounds were unfrozen, and 7.5 μl of a 5 mM stock solution was dissolved in the well containing 243 μl medium, resulting in a 150 μM master solution. Serial dilutions from the master solution were made. The period between the single dilution steps was kept as short as possible (generally less than 1 second).
Plates were kept overnight in the cell culture incubator. The next day, 10 μl of a 10 mM BSO solution were added to the wells, resulting in a 1 mM final BSO concentration. […]

[2] = tested on: human dermal fibroblasts from Parkinson's Disease patients; assay: Rescue of fibroblasts from Parkinson's Disease patients from oxidative stress; conditions: Fibroblast, PD cells AG20439, read-out: protection against PD, EC50
Description: as §1, §2, §3
(§4) Plates were kept overnight in the cell culture incubator. The next day, 10 μl of a 10 mM BSO solution were added to the wells, resulting in a 1 mM final BSO concentration. Forty-eight hours later, three plates were examined under a phase-contrast microscope to verify that the cells in the 0% control (wells E1-H1) were clearly dead. The medium from all plates was discarded, and the remaining liquid was removed by gently tapping the plate inversed onto a paper towel.
(§5) 100 μl of PBS containing 1.2 μM Calcein AM were then added to each well. The plates were incubated for 50-70 minutes at room temperature. After that time the PBS was discarded, the plate gently tapped on a paper towel and fluorescence (excitation/emission wavelengths of 485 nm and 525 nm, respectively) was read on a Gemini fluorescence reader. Data was imported into Microsoft Excel (EXCEL is a registered trademark of Microsoft Corporation for a spreadsheet program) and used to calculate the EC50 concentration for each compound.
Compounds of the invention were tested using a screen similar to the one described in Example A […], but substituting FRDA cells with Parkinson's Disease (PD) cells obtained from the Coriell Cell Repositories (Camden, N.J.; repository number AG20439). The compounds were tested for their ability to rescue human dermal fibroblasts from Parkinson's Disease patients from oxidative stress.

[3] = tested on: human dermal fibroblasts from LHON patients; assay: Rescue of fibroblasts from LHON patients from oxidative stress; conditions: Fibroblast, LHON cells GM03858, read-out: protection against LHON, EC50
Description: as §1, §2, §3, §4, §5
Compounds of the invention were tested using a screen similar to the one described in Example A, but substituting FRDA cells with Leber's Hereditary Optic Neuropathy (LHON) cells obtained from the Coriell Cell Repositories (Camden, N.J.; repository number GM03858). The compounds were tested for their ability to rescue human dermal fibroblasts from LHON patients from oxidative stress.

[4] = tested on: human dermal fibroblasts from Huntington's patients; assay: Rescue of fibroblasts from Huntington's patients from oxidative stress; conditions: Fibroblast, Huntington's cells GM 04281, read-out: protection against Huntington's, EC50
Description: as §1, §2, §3, §4, §5
Compounds of the invention were tested using a screen similar to the one described in Example A, but substituting FRDA cells with Huntington's cells obtained from the Coriell Cell Repositories (Camden, N.J.; repository number GM 04281). The compounds were tested for their ability to rescue human dermal fibroblasts from Huntington's patients from oxidative stress.

[5] = tested on: human dermal fibroblasts from CoQ10 deficient patients; assay: Rescue of fibroblasts from CoQ10 deficient patients from oxidative stress; conditions: Fibroblast, cells from CoQ10 deficient patients harboring a CoQ2 mutation, read-out: protection against CoQ10 deficiency, EC50
Description: as §1, §2, §3, §4, §5
Compounds of the invention were tested using a screen similar to the one described in Example A, but substituting FRDA cells with cells obtained from CoQ10 deficient patients harboring a CoQ2 mutation. The compounds were tested for their ability to rescue human dermal fibroblasts from CoQ10 deficient patients from oxidative stress.

Measured: pEC50

CC1=C(C)C(=O)C(CCNc2ncccc2C(F)(F)F)=C(C)C1=O [2,3,5-Trimethyl-6-(2-(3-(trifluoromethyl)pyridin-2-ylamino)ethyl)cyclohexa-2,5-diene-1,4-dione]
> 7.00: all assays above

CC1=C(C)C(=O)C(CCNc2cc(C(F)(F)F)ccn2)=C(C)C1=O [2,3,5-Trimethyl-6-(2-(4-(trifluoromethyl)pyridin-2-ylamino)ethyl)cyclohexa-2,5-diene-1,4-dione]
> 7.00: all assays above

CC1=C(C)C(=O)C(CCNc2nccc(C(F)(F)F)n2)=C(C)C1=O [2,3,5-Trimethyl-6-(2-(4-(trifluoromethyl)pyrimidin-2-ylamino)ethyl)cyclohexa-2,5-diene-1,4-dione]
> 7.00: all assays above

CC1=C(C)C(=O)C(CCNc2ccc(C(F)(F)F)cn2)=C(C)C1=O [2,3,5-Trimethyl-6-(2-(5-(trifluoromethyl)pyridin-2-ylamino)ethyl)cyclohexa-2,5-diene-1,4-dione]
> 7.00: all assays above

CC1=C(C)C(=O)C(CCNc2cccc(C(F)(F)F)n2)=C(C)C1=O [2,3,5-Trimethyl-6-(2-(6-(trifluoromethyl)pyridin-2-ylamino)ethyl)cyclohexa-2,5-diene-1,4-dione]
> 7.00: all assays above

CC1=C(C)C(=O)C(CCNc2ccccn2)=C(C)C1=O [2,3,5-Trimethyl-6-(2-(pyridin-2-ylamino)ethyl)cyclohexa-2,5-diene-1,4-dione]
> 7.00: all assays above

CC1=C(C)C(=O)C(CCNc2ncccn2)=C(C)C1=O [2,3,5-Trimethyl-6-(2-(pyrimidin-2-ylamino)ethyl)cyclohexa-2,5-diene-1,4-dione]
> 7.00: all assays above

CC1=C(C)C(=O)C(CCNc2nccc(F)n2)=C(C)C1=O [2-(2-(4-Fluoropyrimidin-2-ylamino)ethyl)-3,5,6-trimethylcyclohexa-2,5-diene-1,4-dione]
> 7.00: all assays above

CC1=C(C)C(=O)C(CCNc2ncc(F)cn2)=C(C)C1=O [2-(2-(5-Fluoropyrimidin-2-ylamino)ethyl)-3,5,6-trimethylcyclohexa-2,5-diene-1,4-dione]
> 7.00: all assays above
